From PMC9739180, “Discovery of a Flavonoid FM04 as a Potent Inhibitor to Reverse P-Glycoprotein-Mediated Drug Resistance in Xenografts and Improve Oral Bioavailability of Paclitaxel” (International Journal of Molecular Sciences, 2022)
Where two headings read alike, the source gives them in different places. One block for each compound: values may come before it.

Assay: Pharmacokinetics of PTX and FM04 after oral co-administration
Assay type: in vivo, Balb/c mice
Settings: mice
Protocol: Pharmacokinetics (PK) study of PTX or FM04 after their oral co-administration. […] PTX (20 or 70 mg/kg) was orally co-administered with FM04 (0, 22 or 45 mg/kg) to mice, plasma was collected at 30, 60, 120, 240 and 420 min, respectively. […] FM04 (45 or 100 mg/kg) was orally co-administered with PTX (0, 50 or 70 mg/kg) to mice, plasma was collected at 30, 60, 120, 240 and 420 min, respectively. The concentration FM04 at each time point was determined by UPLC-MS/MS Pharmacokinetic parameter AUC was calculated by the pharmacokinetic software-Summit® PK solutions 2.0 (Summit Research Service, Ashland, Wilmington, DE, USA).
PTX drug solution was prepared in 5% Cremophor EL, 5% ethanol and 90% saline on the day of the experiment. PTX + FM04 drug solution was prepared in 7% Cremophor EL, 8% ethanol and 85% saline on the day of the experiment. PTX drug solution or PTX + FM04 mixture drug solution was administered to the Balb/c mice (female, 4–6 week-old) via oral gavage. Blood was collected via cardiac puncture at scheduled time points (10, 30, 60, 120, 240 and 420 min) under deep anesthesia. All animals were terminated at the end of the experiment. Plasma concentrations of FM04 and PTX were detected using UPLC-MS/MS. Plasma concentration–time profiles were analyzed by non-compartmental analysis (NCA). The area under the plasma concentration–time curve by trapezoid rules (AUC) (from 0 to infinity), the terminal half-life (t1/2β), initial half-life (t1/2α), mean residence time (MRT), maximum observed concentration (Cmax) and time to maximum concentration (Tmax) were calculated by PK Solutions 2.0 (Summit Research Service, Ashland, Wilmington, DE, USA).
PTX and its internal standard (IS) separation were performed on Agilent 1290 series UPLC coupled with Agilent 6460 Triple quadrupole. The calibration curve of PTX was constructed by quantifying the known amount of PTX that spiked to blank mice plasma following identical sample preparation. The mass spectrometer was configured in ESI + ionization mode monitoring MRM ion transition of m/z 854 > 286 (PTX) and m/z 882 > 314 (IS). Source parameters were as follows, gas temp (350 °C), gas flow (8 L/min), nebulizer (35 psi) and capillary (4000 V). UPLC chromatographic separation was performed on Waters Acquity UPLC BEH C18 (1.7 µM, 2.1 × 50 mm) with a 5 min gradient elution of 30% acetonitrile with 0.1% formic acid to 76% ACN with 0.1% formic acid. Milli-Q with 0.1% formic acid was used as the aqueous phase. Each separation and re-equilibration were completed in 9 min.
Detection and quantification of FM04 and its internal standard were done by using the UPLC-MS/MS system consist of an Acquity Waters UPLC interfaced with a triple quadrupole mass spectrometer (Micromass model Quattro Ultima) equipped with an electrospray ionization source in positive mode. The desolvation temperature, capillary voltage, cone gas and desolvation gas were 350 °C, 3 Kv, 150 L/h and 600 L/h, respectively. Multiple reaction monitoring (MRM) was set to monitor the transitions from 416 > 239 (FM04) and 423 > 239 (IS). Chromatography separation was done with an Acquity UPLC BEH C8 column (2.1 × 50 mm, 1.7 µM). The mobile phase consisted of methanol + 0.1% formic acid (solvent B) and Milli-Q water + 0.1% formic acid (solvent A). The flow rate was 0.4 mL/min. The initial condition was 90% solvent A and 10% solvent B. After 1 min elution by the initial condition, a linear gradient was performed with solvent B increasing from 10% to 100% for 10 min. Afterwards, the mobile phase was restored to the initial condition for re-equilibration. The total analysis time was 20 min per injection.

[1] = oral, PTX 20 mg/kg + FM04 45 mg/kg, relative to 20 mg/kg PTX alone
[2] = oral, PTX 70 mg/kg + FM04 22 mg/kg, relative to 70 mg/kg PTX alone
[3] = oral, PTX 70 mg/kg + FM04 45 mg/kg, relative to 70 mg/kg PTX alone

AUC(0-t) (female, Balb/c, mouse, plasma, po, 100 mg/kg, oral, FM04 100 mg/kg, PTX 0 mg/kg, read-out: FM04 AUC(0-t) (converted)): 1820 ng·h/mL
Cmax (female, Balb/c, mouse, plasma, po, 100 mg/kg, oral, FM04 100 mg/kg, PTX 0 mg/kg, read-out: FM04 Cmax): 1020 ng/mL
Tmax (female, Balb/c, mouse, plasma, po, 100 mg/kg, oral, FM04 100 mg/kg, PTX 0 mg/kg, read-out: FM04 Tmax (converted)): 30 min
AUC(0-t) (female, Balb/c, mouse, plasma, po, oral, FM04 45 mg/kg + PTX 50 mg/kg, read-out: FM04 AUC(0-t) (converted)): 645 ng·h/mL
Cmax (female, Balb/c, mouse, plasma, po, oral, FM04 45 mg/kg + PTX 50 mg/kg, read-out: FM04 Cmax): 754 ng/mL
Tmax (female, Balb/c, mouse, plasma, po, oral, FM04 45 mg/kg + PTX 50 mg/kg, read-out: FM04 Tmax (converted)): 30 min
AUC(0-t) (female, Balb/c, mouse, plasma, po, oral, FM04 45 mg/kg + PTX 70 mg/kg, read-out: FM04 AUC(0-t) (converted)): 740 ng·h/mL
Cmax (female, Balb/c, mouse, plasma, po, oral, FM04 45 mg/kg + PTX 70 mg/kg, read-out: FM04 Cmax): 481 ng/mL
Tmax (female, Balb/c, mouse, plasma, po, oral, FM04 45 mg/kg + PTX 70 mg/kg, read-out: FM04 Tmax (converted)): 60 min
concentration at 720 min (female, Balb/c, mouse, plasma, FM04 100 mg/kg oral alone, at 720 min, read-out: minimum plasma concentration of FM04): 43 ng/mL
oral absorption of FM04 (FM04 100 mg/kg oral alone): < 0.005%
SMILES: O=c1cc(-c2ccc(OCCOCCNCc3ccccc3)cc2)oc2ccccc12 [FM04, 2-(4-(2-(2-(benzylamino)ethoxy)ethoxy)phenyl)-4H-chromen-4-one]

SMILES: CC(=O)O[C@H]1C(=O)[C@@]2(C)[C@H]([C@H](OC(=O)c3ccccc3)[C@]3(O)C[C@H](OC(=O)[C@H](O)[C@@H](NC(=O)c4ccccc4)c4ccccc4)C(C)=C1C3(C)C)[C@]1(OC(C)=O)CO[C@@H]1C[C@@H]2O [PTX, paclitaxel]
AUC (female, Balb/c, mouse, plasma, po, 20 mg/kg, oral, PTX 20 mg/kg + FM04 45 mg/kg): 9400 ng·h/mL
Cmax (female, Balb/c, mouse, plasma, po, 20 mg/kg, oral, PTX 20 mg/kg, FM04 0 mg/kg, read-out: PTX Cmax): 134 ng/mL
AUC (female, Balb/c, mouse, plasma, po, 20 mg/kg, PTX 20 mg/kg alone): 143 ng·h/mL
AUC (female, Balb/c, mouse, plasma, po, 70 mg/kg, oral, PTX 70 mg/kg + FM04 45 mg/kg): 30000 ng·h/mL
AUC(0-t) (female, Balb/c, mouse, plasma, po, 70 mg/kg, oral, PTX 70 mg/kg, FM04 0 mg/kg, read-out: PTX AUC(0-t) (converted)): 523 ng·h/mL
Cmax (female, Balb/c, mouse, plasma, po, 70 mg/kg, oral, PTX 70 mg/kg, FM04 0 mg/kg, read-out: PTX Cmax): 186 ng/mL
AUC (female, Balb/c, mouse, plasma, po, 70 mg/kg, PTX 70 mg/kg alone): 523 ng·h/mL
AUC(0-t) (female, Balb/c, mouse, plasma, po, oral, PTX 20 mg/kg + FM04 45 mg/kg, read-out: PTX AUC(0-t) (converted)): 9400 ng·h/mL
Cmax (female, Balb/c, mouse, plasma, po, oral, PTX 20 mg/kg + FM04 45 mg/kg, read-out: PTX Cmax): 3510 ng/mL
AUC (female, Balb/c, mouse, plasma, po, oral, PTX 70 mg/kg + FM04 22 mg/kg): 15500 ng·h/mL
AUC(0-t) (female, Balb/c, mouse, plasma, po, oral, PTX 70 mg/kg + FM04 22 mg/kg, read-out: PTX AUC(0-t) (converted)): 15500 ng·h/mL
Cmax (female, Balb/c, mouse, plasma, po, oral, PTX 70 mg/kg + FM04 22 mg/kg, read-out: PTX Cmax): 4950 ng/mL
AUC(0-t) (female, Balb/c, mouse, plasma, po, oral, PTX 70 mg/kg + FM04 45 mg/kg, read-out: PTX AUC(0-t) (converted)): 30000 ng·h/mL
Cmax (female, Balb/c, mouse, plasma, po, oral, PTX 70 mg/kg + FM04 45 mg/kg, read-out: PTX Cmax): 9760 ng/mL
Tmax (female, Balb/c, mouse, plasma, oral, PTX 20 mg/kg + FM04 45 mg/kg, read-out: PTX Tmax (converted)): 120 min
PTX AUC/Dose fold-change vs PTX alone [1]: 66
PTX Cmax fold-change vs PTX alone [1]: 26
PTX AUC/Dose fold-change vs PTX alone [2]: 30
PTX Cmax fold-change vs PTX alone [2]: 27
PTX AUC/Dose fold-change vs PTX alone [3]: 57
PTX Cmax fold-change vs PTX alone [3]: 53
oral absorption of PTX (oral PTX 70 mg/kg with FM04 22 mg/kg): 6.6%
oral absorption of PTX (oral PTX with FM04 45 mg/kg): 14%
oral absorption of PTX (oral PTX without FM04): 0.2%
